# Data from article PMC11125359 (Pharmaceuticals, 2024).
# Read-outs that look alike come from different tables or passages of the source.
# Legend:
# caspase-3 [1] = test: Caspase-3 ELISA in treated A549 cells; format: cell-based, human; conditions: DMSO control 85.92 ± 0.12
# [2] = target: bovine serum albumin (BSA) (Bos taurus, UniProt P02769); conditions: equal concentrations (1000 µg/mL); mean ± SE
# [3] = Iron-reducing power (IRP); conditions: equal concentrations (1000 µg/mL); mean ± SE, three replicates
# Experimental: All in vitro biological activities were assessed in the tested compounds at equal concentrations (1000 µg/mL). All assays were carried out in triplicate.
# In vitro biological activities
# The total antioxidant capacity (TAC) was determined by analyzing the green phosphate/Mo5+ complex at a wavelength (λ) of 695 nm, following the procedure described by Prieto
# et al. Samples (at each concentration) were mixed with a reagent solution containing 0.3 N sulfuric
# acid, 28 mM sodium phosphate, and 4 mM ammonium molybdate. Methanol (80%) was used in place
# of the sample for the blank. The tubes were sealed and incubated in a boiling water bath for 90
# minutes. After cooling to room temperature, the absorbance was measured at 695 nm against the
# blank. Ascorbic acid was used at the same concentrations as a standard. The antioxidant capacity was
# expressed as mg gallic acid equivalent per gram weight.
# The iron reducing power was determined as µg/mL using the method proposed by Oyaizu
# In brief, 1ml of the tested sample (at each concentration) was combined with 1mL of 200mM
# sodium phosphate buffer (pH 6.6) and 1mL of 1% potassium ferricyanide. The mixture was then
# incubated at 50°C for 20 minutes, followed by the addition of 1mL of trichloroacetic acid (10%). After
# centrifugation at 2000rpm for 10 minutes, the upper layer solution (2.5 mL) was mixed with 2.5 mL of double deionized water and 1mL of fresh ferric chloride (0.1%). The absorbance was measured at
# 700nm against a blank prepared without the sample. Ascorbic acid was used at the same
# concentrations as a standard. A high absorbance at 700nm indicates a higher reducing power in the
# The 1,1-Diphenyl-2-picryl-hydrazyl (DPPH) radical scavenging activities were evaluated using the method described by Rahman et al. An antioxidant substance capable of donating a
# hydrogen atom to a solution containing DPPH- can reduce the stable free radical, causing the solution
# to change color from violet to pale yellow. The remaining DPPH- radical was quantified by
# nm using a spectroscopic method. Two milliliters of a DPPH solution (100 µM) in ethanol were mixed
# with 2 mL of the sample (at each concentration). The reaction mixture for each concentration was
# thoroughly vortexed and then incubated in the dark at room temperature for 30 minutes. The
# absorbance was then measured spectrophotometrically at 518 nm against a blank (ethanol). For the
# control, 2 mL of ethanol was added instead of the sample and run simultaneously with the test.
# Ascorbic acid was used at the same concentrations as a positive control. Percent inhibition of the
# DPPH free radical was calculated. The median inhibitory concentration (IC 50) for each tested
# The procedure for the 2,2'-azinobis-(3-ethylbenzothiazoline-6-sulfonic acid) (ABTS) assay
# potassium persulfate solution (2.4 mM). The working solution was prepared by mixing the two stock
# solutions in equal quantities and allowing them to react at room temperature in a dark place for 14
# hours. The solution was then diluted by mixing 1 mL of ABTS solution with 60 mL of methanol to
# was prepared for each assay. The tested samples (at each concentration) were allowed to react with 1
# mL of the ABTS solution, and the absorbance was taken at 734 nm after 7 minutes using a
# spectrophotometer. The ABTS scavenging capacities of the samples were compared with that of
# ascorbic acid (at the same concentrations).
# [4] = test system: proteinase enzyme (trypsin); test: Proteinase enzyme inhibition (anti-inflammatory); format: biochemical; conditions: equal concentrations (1000 µg/mL); mean ± SE
# α-amylase = test: α-Amylase inhibition (anti-diabetic); format: biochemical; conditions: equal concentrations (1000 µg/mL); mean ± SE
# caspase-3 [5] = test: Caspase-3 ELISA in treated Caco-2 cells; format: cell-based, human; conditions: DMSO control 97.06 ± 0.14
# Bcl-2 [6] = test: Bcl-2 ELISA in treated A549 cells; format: cell-based, human; conditions: DMSO control 9.83 ± 0.05
# [7] = Total antioxidant capacity (TAC), phosphomolybdenum method; conditions: equal concentrations (1000 µg/mL); mean ± SE, three replicates
# [8] = test system: human lung cancer (A549) cell line; test: Cytotoxic activity, MTT assay, lung (A549); conditions: for IC50: Homo sapiens, A549, 48 h, read-out: Cytotoxic activity IC50, Lung (A549)
# Experimental: (§1) It will be assayed against human lung cancer (A549) and colon (Caco-2) cell line in
# (§2) comparison with normal lung (WI-38) cell line using 3-(4,5-dimethythiazol-2-yl)-2,5-diphenyl
# (§3) tetrazolium bromide (MTT) assay by determining the optical density (OD) at 570 nm according to the
# (§4) The cells were dispensed in a 96-well sterile microplate (3
# (§5) µL of each compound or doxorubicin (positive control, in DMSO) for 48 h in a serum free medium
# (§6) prior to the MTT assay. Subsequently, the media were carefully removed, and 40 µL of MTT (2.5
# (§7) mg/mL) was added to each well and then incubated for an additional 4 h. Purple formazan dye
# (§8) crystals were solubilized by the addition of 200 µL of DMSO. The absorbance was measured at 570 nm using a SpectraMax Paradigm Multi-Mode microplate reader. The relative cell viability was
# (§9) experiments were conducted in triplicate. Percent of the cell-growth inhibition (%) and the IC 50 was
# (§10) calculated using IC 50 calculation software. The concentrations used for calculating the IC 50 depend on
# α-glucosidase = test: α-Glucosidase inhibition (anti-diabetic); format: biochemical; conditions: equal concentrations (1000 µg/mL); mean ± SE
# [9] = test system: human colon cancer (Caco-2) cell line; test: cells; format: cell-based; conditions: for IC50: Homo sapiens, read-out: Cytotoxic activity IC50, Colon (Caco-2)
# [10] = ABTS radical scavenging assay; conditions: equal concentrations (1000 µg/mL); mean ± SE
# Bcl-2 [11] = test: Bcl-2 ELISA in treated Caco-2 cells; format: cell-based, human; conditions: DMSO control 7.99 ± 0.08
# [12] = Cytotoxic activity, MTT assay, normal lung (WI-38); format: cell-based; conditions: human
# [13] = target: acetylcholinesterase (AChE) (Homo sapiens, UniProt P22303); test: biochemical; conditions: same concentration (1000 µg/mL); mean ± SE
# [14] = DPPH radical-scavenging activity; conditions: read-out: DPPH (IC50); mean ± SE, three replicates
# [15] = test system: human lung cancer (A549) cell line; conditions: 48 h
# Experimental: as §1, §2, §3, §4, §5, §6, §7, §8, §9, §10
# [16] = Conc.: 5a 13.45, 5d 12.64, 5e 12.29, 5f 11.81, 7a 12.72, 7f 11.24, DOX 11.50
# [17] = Conc.: 5a 26.91, 5d 25.27, 5e 24.58, 5f 23.63, 7a 25.43, 7f 22.48, DOX 23.00
# [18] = Conc.: 5a 53.81, 5d 50.55, 5e 49.15, 5f 47.26, 7a 50.86, 7f 44.96, DOX 46.00
# [19] = Conc.: 5a 107.63, 5d 101.09, 5e 98.31, 5f 94.51, 7a 101.72, 7f 89.93, DOX 91.99
# [20] = Conc.: 5a 215.26, 5d 202.19, 5e 196.61, 5f 189.03, 7a 203.44, 7f 179.85, DOX 183.99
# acetylcholinesterase (AChE), sequence (P22303 32-614, species assumed): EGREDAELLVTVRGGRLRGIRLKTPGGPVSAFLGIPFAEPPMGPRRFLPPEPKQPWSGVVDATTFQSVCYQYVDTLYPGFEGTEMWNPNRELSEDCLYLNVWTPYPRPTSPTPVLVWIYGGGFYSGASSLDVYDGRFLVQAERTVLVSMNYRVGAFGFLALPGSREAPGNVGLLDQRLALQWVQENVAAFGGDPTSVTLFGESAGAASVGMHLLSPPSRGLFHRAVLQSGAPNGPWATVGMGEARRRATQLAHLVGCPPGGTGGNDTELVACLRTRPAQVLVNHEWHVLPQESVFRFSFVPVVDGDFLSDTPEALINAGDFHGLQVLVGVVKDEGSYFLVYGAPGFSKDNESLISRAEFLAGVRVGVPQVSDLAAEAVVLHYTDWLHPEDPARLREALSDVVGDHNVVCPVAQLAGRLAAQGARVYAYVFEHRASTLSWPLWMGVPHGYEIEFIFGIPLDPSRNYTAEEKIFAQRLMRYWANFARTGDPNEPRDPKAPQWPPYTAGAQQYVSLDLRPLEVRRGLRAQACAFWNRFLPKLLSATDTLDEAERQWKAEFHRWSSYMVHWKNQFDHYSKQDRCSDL
# bovine serum albumin (BSA), sequence (P02769 25-607): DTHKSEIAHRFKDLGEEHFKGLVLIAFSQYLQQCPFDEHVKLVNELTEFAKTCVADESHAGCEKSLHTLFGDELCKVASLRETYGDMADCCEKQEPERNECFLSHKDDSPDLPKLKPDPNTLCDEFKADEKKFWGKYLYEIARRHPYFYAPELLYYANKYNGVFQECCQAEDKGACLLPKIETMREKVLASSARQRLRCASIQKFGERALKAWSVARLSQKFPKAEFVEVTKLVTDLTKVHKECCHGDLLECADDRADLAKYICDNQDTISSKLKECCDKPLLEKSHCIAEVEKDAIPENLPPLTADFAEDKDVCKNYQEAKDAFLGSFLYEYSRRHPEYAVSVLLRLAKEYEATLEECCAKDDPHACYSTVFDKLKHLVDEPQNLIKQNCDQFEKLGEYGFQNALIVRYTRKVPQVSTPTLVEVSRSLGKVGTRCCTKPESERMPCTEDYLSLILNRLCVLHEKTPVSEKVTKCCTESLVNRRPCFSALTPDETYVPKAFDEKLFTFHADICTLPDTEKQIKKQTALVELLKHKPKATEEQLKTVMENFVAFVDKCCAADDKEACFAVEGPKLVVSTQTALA
compound,measurement,setting,value
COc1ccc(Nc2n[nH]c(N=Cc3c(C)n(C)n(-c4ccccc4)c3=O)c2C(=O)Nc2ccc(Cl)cc2)cc1 [7f],"Caspase-3 level, Lung (A549)",caspase-3 [1],244.88 ± 0.34 pg/mL
same,Inhibition (%) Protein Denaturation,[2],27.75 ± 0.03%
same,Iron-Reducing Power (IRP),[3],35.45 ± 0.07 µg/mL
same,Inhibition (%) Proteinase,[4],24.13 ± 0.03%
same,Inhibition (%) α-Amylase,α-amylase,32.31 ± 0.05%
same,"Caspase-3 level, Colon (Caco-2)",caspase-3 [5],276.62 ± 0.41 pg/mL
same,"Bcl-2 level, Lung (A549)",Bcl-2 [6],3.45 ± 0.02 ng/mL
same,Total Antioxidant Capacity (TAC),[7],54.04 ± 0.20 mg Gallic Acid/g
same,"Viability %, A549, 1st concentration",[8]; [16],96.21%
same,"Viability %, A549, 2nd concentration",[8]; [17],86.06%
same,"Viability %, A549, 3rd concentration",[8]; [18],59.66%
same,"Viability %, A549, 4th concentration",[8]; [19],45.23%
same,"Viability %, A549, 5th concentration",[8]; [20],18.95%
same,IC50,[8],55.74 ± 0.24 µM
same,Inhibition (%) α-Glucosidase,α-glucosidase,27.79 ± 0.05%
same,"Viability %, Caco-2, 1st concentration",[9]; [16],81.68%
same,"Viability %, Caco-2, 2nd concentration",[9]; [17],73.16%
same,"Viability %, Caco-2, 3rd concentration",[9]; [18],54.13%
same,"Viability %, Caco-2, 4th concentration",[9]; [19],31.97%
same,"Viability %, Caco-2, 5th concentration",[9]; [20],24.59%
same,IC50,"[9]; Caco-2, 48 h, MTT, mean ± SE",49.01 ± 0.24 µM
same,"Therapeutic Index (TI), Colon (Caco-2)",[9]; IC50 on normal cells (WI-38)/IC50 on Caco-2,11.06
same,ABTS (%) inhibition,[10],78.05 ± 0.05%
same,"Bcl-2 level, Colon (Caco-2)",Bcl-2 [11],2.80 ± 0.03 ng/mL
same,viability at 48 h,"[12]; WI-38 normal lung cells, Conc. as printed: 5a 53.81, 5d 50.55, 5e 49.15, 5f 47.26, 7a 50.86, 7f 44.96, DOX 46.00, read-out: Viability %, WI-38, 3rd concentration",79.3%
same,viability at 48 h,"[12]; WI-38 normal lung cells, Conc. as printed: 5a 107.63, 5d 101.09, 5e 98.31, 5f 94.51, 7a 101.72, 7f 89.93, DOX 91.99, read-out: Viability %, WI-38, 4th concentration",73.3%
same,viability at 48 h,"[12]; WI-38 normal lung cells, Conc.: 5a 13.45, 5d 12.64, 5e 12.29, 5f 11.81, 7a 12.72, 7f 11.24, DOX 11.50, read-out: Viability %, WI-38, 1st concentration",95.2%
same,viability at 48 h,"[12]; WI-38 normal lung cells, Conc.: 5a 26.91, 5d 25.27, 5e 24.58, 5f 23.63, 7a 25.43, 7f 22.48, DOX 23.00, read-out: Viability %, WI-38, 2nd concentration",87.2%
same,viability at 48 h,"[12]; WI-38 normal lung cells, Conc.: 5a 215.26, 5d 202.19, 5e 196.61, 5f 189.03, 7a 203.44, 7f 179.85, DOX 183.99, read-out: Viability %, WI-38, 5th concentration",59.2%
same,IC50 at 48 h,"[12]; WI-38 normal lung cells, 48 h, MTT, mean ± SE, read-out: Cytotoxic activity IC50, Normal Lung (WI-38)",543 ± 8.52 µM
same,Inhibition (%) Acetylcholinesterase,[13],62.00 ± 0.04%
same,inhibition at 1000 µg/mL,[13],62.11 ± 0.04%
same,IC50,[14],21.37 ± 0.01 µM
"COc1cccc2c1C(=O)c1c(O)c3c(c(O)c1C2=O)C[C@@](O)(C(=O)CO)C[C@@H]3O[C@H]1C[C@H](N)[C@H](O)[C@H](C)O1 [Doxorubicin, reference compound]","Viability %, A549, 1st concentration",[15],80.86%
same,"Viability %, A549, 2nd concentration",[15],69.31%
same,"Viability %, A549, 3rd concentration",[15],36.91%
same,"Viability %, A549, 4th concentration",[15],18.92%
same,"Viability %, A549, 5th concentration",[15],11.20%
same,"Caspase-3 level, Lung (A549)",caspase-3 [1],330.80 ± 0.46 pg/mL
same,"Bcl-2 level, Lung (A549)",Bcl-2 [6],2.55 ± 0.01 ng/mL
same,IC50,[8],36.45 ± 0.16 µM
same,"Therapeutic Index (TI), Colon (Caco-2)",[9]; Caco-2,5.55
same,IC50,"[9]; Caco-2, 48 h",54.94 ± 0.16 µM
same,"Viability %, Caco-2, 1st concentration","[9]; human, Caco-2, 48 h",72.32%
same,"Viability %, Caco-2, 2nd concentration","[9]; human, Caco-2, 48 h",50.77%
same,"Viability %, Caco-2, 3rd concentration","[9]; human, Caco-2, 48 h",41.86%
same,"Viability %, Caco-2, 4th concentration","[9]; human, Caco-2, 48 h",23.02%
same,"Viability %, Caco-2, 5th concentration","[9]; human, Caco-2, 48 h",20.05%
same,IC50 at 48 h,[12],305 ± 4.72 µM
same,viability at 48 h,"[12]; Viability %, WI-38, 1st concentration",77.5%
same,viability at 48 h,"[12]; Viability %, WI-38, 2nd concentration",69.1%
same,viability at 48 h,"[12]; Viability %, WI-38, 3rd concentration",62.3%
same,viability at 48 h,"[12]; Viability %, WI-38, 4th concentration",52.7%
same,viability at 48 h,"[12]; Viability %, WI-38, 5th concentration",38.5%
